The text below walks through data of patent US20180086744A1, “COMBINATION TREATMENT OF CANCER COMPRISING EGFR/HER2 INHIBITORS” (Boehringer Ingelheim International GmbH, priority 2005, published 2018).

In one assay the test system is SKOV-3 cells. Nature of the assay: anchorage independent SKOV-3 cell assay (soft agar). Format: cell-based, human. How it is done: SKOV-3 cells are grown on a soft agar layer in the presence of 2 nM BIBW2992BS or three concentrations of 5FU (200 nM, 400 nM, 800 nM) or in combination of both.
The subject of assay [1] is cell lines expressing double mutant EGF receptors. Particulars: cited from earlier work.
The subject of assay [2] is double mutant EGF receptors. The following applies: cell lines expressing double mutant EGF receptors; cited from earlier work.

One may read the inhibition as the drop in the measured response relative to a control, in per cent. `CN(C)C/C=C/C(=O)Nc1cc2c(Nc3ccc(F)c(Cl)c3)ncnc2cc1O[C@H]1CCOC1` [BIBW2992, 4-[(3-chloro-4-fluorophenyl)amino]-6-{[4-(N,N-dimethylamino)-1-oxo-2-buten-1-yl]amino}-7-((S)-tetrahydrofuran-3-yloxy)-quinazoline]: the inhibition at 0.002 µM in the assay on SKOV-3 cells (Homo sapiens, SK-OV-3, 2 nM, read-out: inhibition of cell growth) was determined as 20%.
For the compound `O=c1[nH]cc(F)c(=O)[nH]1` [5FU, 5-fluorouracile], the “inhibition of cell growth” value in the assay on SKOV-3 cells (200 nM) and in the assay with SKOV-3 cells (400 nM) was “No inhibition” in each case. Besides, the inhibition at 0.8 µM in the assay on SKOV-3 cells (Homo sapiens, SK-OV-3, 800 nM, read-out: inhibition of cell growth) was 13%.
With `CC#CC(=O)Nc1ccc2ncnc(Nc3cccc(Br)c3)c2c1` [CL 387,785], in assay [1], the inhibition of proliferation result is “able to inhibit”. Also, the “inhibition of EGF-induced EGFR phosphorylation” value in assay [2] is recorded as “able to inhibit”.
